Measurements taken from patent US20240174637A1, “DEGRADERS OF GRK2 AND USES THEREOF” (Sonata Therapeutics, Inc., priority 2021, published 2024).
Where a name gives a salt, the structure may show the parent alone. Read-outs that look alike come from different tables or passages of the source.

How the values were obtained:
PAXF1657 KO Clone #4 = assay: 7-day cellular proliferation assay (CellTiter-Glo), PAXF1657 KO Clone #4; assay type: cell-based
Outline: (§1)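 PAXF1657 isogenic lines (GRK2-overexpressing vs empty vector; CRISPR GRK2 knockout vs non-targeting control clones) seeded 500 cells/well in RPMI1640/10% FBS and treated next day with 10-point dilutions, 30 μM-0.0002 μM final, 0.3% DMSO. Media with compound refreshed after 3 days; viability read by CellTiter-Glo luminescence at day 7.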

PAXF1657 EV = assay: 7-day cellular proliferation assay (CellTiter-Glo), PAXF1657 EV; assay type: cell-based
Outline: as §1

GRK2 [1] = biological target: T1, GRK2 (Homo sapiens, UniProt P25098); assay: GRK2 Degradation Assay and Western Blot in PAXF1657 cells; assay type: cell-based; parameters: endogenous in cells; host or cells: PAXF1657; details: for DC50: PAXF1657, 24 h, read-out: Degradation Assay - Full Dose Response: IC50 (uM) [cell line: PAXF1657, time point: 24 h]
T1 sequence (P25098 1-689): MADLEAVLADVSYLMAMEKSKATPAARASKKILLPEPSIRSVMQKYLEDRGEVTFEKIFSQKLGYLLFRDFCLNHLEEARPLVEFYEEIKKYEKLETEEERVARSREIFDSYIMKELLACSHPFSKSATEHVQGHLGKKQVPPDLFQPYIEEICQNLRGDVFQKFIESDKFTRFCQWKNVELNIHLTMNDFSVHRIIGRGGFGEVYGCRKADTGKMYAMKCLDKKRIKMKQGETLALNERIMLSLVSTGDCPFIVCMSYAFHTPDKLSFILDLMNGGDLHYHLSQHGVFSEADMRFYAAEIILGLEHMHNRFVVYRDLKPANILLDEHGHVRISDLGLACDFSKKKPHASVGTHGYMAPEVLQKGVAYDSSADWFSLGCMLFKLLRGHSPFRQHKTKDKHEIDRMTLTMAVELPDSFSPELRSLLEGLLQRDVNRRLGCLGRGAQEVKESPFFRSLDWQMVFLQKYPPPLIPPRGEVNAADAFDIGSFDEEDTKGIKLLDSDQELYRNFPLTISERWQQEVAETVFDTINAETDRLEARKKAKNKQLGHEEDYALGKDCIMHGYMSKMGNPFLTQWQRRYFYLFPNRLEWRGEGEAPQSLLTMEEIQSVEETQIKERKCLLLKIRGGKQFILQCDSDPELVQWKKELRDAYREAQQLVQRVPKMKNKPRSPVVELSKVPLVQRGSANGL
Outline: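 PAXF1657 cells grown to 70% confluency, then treated with compounds at 0–10 μM for 6 to 24 h at 37 °C. Lysates in PBS with 1% NP40 run on SDS-PAGE. GRK2 protein detected by western blot with β-actin as loading reference, using ECL chemiluminescence.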

GRK2 [2] = biological target: T1, GRK2; assay: GRK2 Inhibition Assay (TR-FRET, Example 1); assay type: biochemical
Outline: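 GRK2 (1 nM) pre-incubated 30 min RT with compounds in HEPES/MgCl2/DTT/Tween-20/EGTA buffer, then reacted 90 min RT with 7 μM ATP and 50 nM ULight-TopoIIα substrate. Stopped with EDTA plus Eu anti-TopoIIα antibody; TR-FRET read after 60 min.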

[3] = proliferation, read-out: GeoMean IC50 (uM) PAXF1657 KO Clone #4
[4] = proliferation, read-out: GeoMean IC50 (UM) PAXF1657 EV
[5] = Conc 0.3 uM, read-out: Degradation Assay - 3 point: Degradation (%)
[6] = Conc 1 uM, read-out: Degradation Assay - 3 point: Degradation (%)
[7] = Conc 3 uM, read-out: Degradation Assay - 3 point: Degradation (%)
[8] = Table 4, Example 1 assay, read-out: Enzymatic GRK2 IC50: Av IC50 GRK2
[9] = 168 h, 7-day, read-out: 7-day proliferation assay: IC50 GeoMean (uM) [Cell Line: PAXF1657 KO Clone #4]
[10] = 168 h, 7-day, read-out: 7-day proliferation assay: IC50 GeoMean (uM) [Cell Line: PAXF1657 EV]
[11] = 0.3 uM, PAXF1657 EV, 24 hrs, read-out: % GRK2 degradation at 0.3 uM in PAXF1657 EV (24 hrs)
[12] = 1 uM, PAXF1657 EV, 24 hrs, read-out: % GRK2 degradation at 1 uM in PAXF1657 EV (24 hrs)
[13] = 3 uM, PAXF1657 EV, 24 hrs, read-out: % GRK2 degradation at 3 uM in PAXF1657 EV (24 hrs)
[14] = TR-FRET, 7 μM ATP, read-out: Enzymatic GRK2 Assay: IC50 (nM) (Example 1)

| inhibition at 0.3 µM (GRK2 [1]; [5]) | inhibition at 1 µM (GRK2 [1]; [6]) | inhibition at 3 µM (GRK2 [1]; [7]) | IC50 (GRK2 [2]; [8]) | inhibition at 0.3 µM (GRK2 [1]; [11]) | inhibition at 1 µM (GRK2 [1]; [12]) | inhibition at 3 µM (GRK2 [1]; [13]) | IC50 (GRK2 [2]; [14]) | SMILES | IC50 (PAXF1657 KO Clone #4; [3]) | IC50 (PAXF1657 EV; [4]) | IC50 (PAXF1657 KO Clone #4; [9]) | IC50 (PAXF1657 EV; [10]) | DC50 (GRK2 [1]) |
| --- | --- | --- | --- | --- | --- | --- | --- | --- | --- | --- | --- | --- | --- |
| 44% | 43% | 40% | > 1000 nM |  |  |  |  | C[C@H](NC(=O)c1cccc(NCc2nnc(-c3ccncn3)n2C)c1)c1ccc(OCCCCCOCCCOCC(=O)Nc2cccc3c2CN(C2CCC(=O)NC2=O)C3=O)cc1 (stereo partly drawn) [Compound D150, N-((1S)-1-(4-((5-(3-(2-((2-(2,6-dioxopiperidin-3-yl)-1-oxoisoindolin-4-yl)amino)-2-oxoethoxy)propoxy)pentyl)oxy)phenyl)ethyl)-3-(((4-methyl-5-(pyrimidin-4-yl)-4H-1,2,4-triazol-3-yl)methyl)amino)benzamide] | > 30 µM | 27.7 µM |  |  |  |
| 57.7% | 82.4% | 86.7% | 9.05 nM |  |  |  |  | C[C@@H](NC(=O)c1cccc(NCc2nnc(-c3ccncn3)n2C)c1)c1cccc(OCCCCCCOCC(=O)N2CCN(c3cc4c(cc3F)C(=O)N(C3CCC(=O)NC3=O)C4=O)CC2)c1 (stereo partly drawn) [Compound D133, N-((1R)-1-(3-(6-(2-(4-(2-(2,6-dioxopiperidin-3-yl)-6-fluoro-1,3-dioxoisoindolin-5-yl)piperazin-1-yl)-2-oxoethoxy)hexyloxy)phenyl)ethyl)-3-((4-methyl-5-(pyrimidin-4-yl)-4H-1,2,4-triazol-3-yl)methylamino)benzamide] | > 30 µM | 0.71 µM |  |  |  |
| 85% | 92% | 95% | 20.2 nM |  |  |  |  | C[C@@H](NC(=O)c1cccc(NCc2nnc(-c3ccncn3)n2C)c1)c1cccc(OCCCCCCOCCOCC(=O)N2CCN(c3ccc4c(c3)CN(C3CCC(=O)NC3=O)C4=O)CC2)c1 (stereo partly drawn) [Compound D138, N-((1R)-1-(3-(6-(2-(2-(4-(2-(2,6-dioxopiperidin-3-yl)-1-oxoisoindolin-5-yl)piperazin-1-yl)-2-oxoethoxy)ethoxy)hexyloxy)phenyl)ethyl)-3-((4-methyl-5-(pyrimidin-4-yl)-4H-1,2,4-triazol-3-yl)methylamino)benzamide hydrochloride] | > 30 µM | 0.66 µM |  |  | 0.137 µM |
| 66.2% | 71.1% | 38.9% | 23.8 nM |  |  |  |  | C[C@@H](NC(=O)c1cccc(NCc2nnc(-c3ccncn3)n2C)c1)c1cccc(OCCCCCOCCCOCCNc2cccc3c2CN(C2CCC(=O)NC2=O)C3=O)c1 (stereo partly drawn) [Compound D196, N-((1R)-1-(3-(5-(3-(2-(2-(2,6-dioxopiperidin-3-yl)-1-oxoisoindolin-4-ylamino)ethoxy)propoxy)pentyloxy)phenyl)ethyl)-3-((4-methyl-5-(pyrimidin-4-yl)-4H-1,2,4-triazol-3-yl)methylamino)benzamide] | > 30 µM | 0.36 µM |  |  |  |
| -6.8% | 27.7% | 54.5% | 82.3 nM |  |  |  |  | Cn1c(CNc2cccc(C(=O)NCc3cc(OCCCCCOCCCOCC(=O)Nc4cccc5c4CN(C4CCC(=O)NC4=O)C5=O)ccc3F)c2)nnc1-c1ccncn1 (centres unmarked) [Compound D197, N-(5-(5-(3-(2-(2-(2,6-dioxopiperidin-3-yl)-1-oxoisoindolin-4-ylamino)-2-oxoethoxy)propoxy)pentyloxy)-2-fluorobenzyl)-3-((4-methyl-5-(pyrimidin-4-yl)-4H-1,2,4-triazol-3-yl)methylamino)benzamide] | > 30 µM | 5.89 µM |  |  |  |

The remaining lines, values behind:

| SMILES | inhibition at 0.3 µM (GRK2 [1]; [5]) | inhibition at 1 µM (GRK2 [1]; [6]) | inhibition at 3 µM (GRK2 [1]; [7]) | IC50 (GRK2 [2]; [8]) | inhibition at 0.3 µM (GRK2 [1]; [11]) | inhibition at 1 µM (GRK2 [1]; [12]) | inhibition at 3 µM (GRK2 [1]; [13]) | IC50 (GRK2 [2]; [14]) | IC50 (PAXF1657 KO Clone #4; [3]) | IC50 (PAXF1657 EV; [4]) | IC50 (PAXF1657 KO Clone #4; [9]) | IC50 (PAXF1657 EV; [10]) | DC50 (GRK2 [1]) |
| --- | --- | --- | --- | --- | --- | --- | --- | --- | --- | --- | --- | --- | --- |
| Cc1ncsc1-c1ccc(CNC(=O)[C@@H]2C[C@@H](O)CN2C(=O)[C@@H](NC(=O)CCCCCOCCOCCOCCCCCCOc2ccc(C(F)(F)F)c(CNC(=O)c3cccc(NCc4nnc(-c5ccncn5)n4C)c3)c2)C(C)(C)C)cc1 [Compound D92, (2S,4R)-1-((S)-2-(tert-butyl)-22-(3-((3-(((4-methyl-5-(pyrimidin-4-yl)-4H-1,2,4-triazol-3-yl)methyl)amino)benzamido)methyl)-4-(trifluoromethyl)phenoxy)-4-oxo-10,13,16-trioxa-3-azadocosan-1-oyl)-4-hydroxy-N-(4-(4-methylthiazol-5-yl)benzyl)pyrrolidine-2-carboxamide] |  |  |  |  | 34% | 12% | 5% | < 100 nM |  |  | > 10 µM | < 1 µM |  |
| C[C@@H](NC(=O)c1cccc(NCc2nnc(-c3ccncn3)n2C)c1)c1cccc(OCCCCN2CCN(c3ccc4c(c3)CN(C3CCC(=O)NC3=O)C4=O)CC2)c1 (stereo partly drawn) [Compound D129, N-((1R)-1-(3-(4-(4-(2-(2,6-dioxopiperidin-3-yl)-1-oxoisoindolin-5-yl)piperazin-1-yl)butoxy)phenyl)ethyl)-3-((4-methyl-5-(pyrimidin-4-yl)-4H-1,2,4-triazol-3-yl)methylamino)benzamide] | 79.8% | 77.5% | 70.6% | 27.9 nM |  |  |  |  | > 30 µM | 0.1 µM |  |  | 0.08 µM |
| C[C@@H](NC(=O)c1cccc(NCc2nnc(-c3ccncn3)n2C)c1)c1ccc(OCCCCN2CCN(c3ccc4c(c3)CN(C3CCC(=O)NC3=O)C4=O)CC2)cc1 (stereo partly drawn) [Compound D175, N-((1R)-1-(4-(4-(4-(2-(2,6-dioxopiperidin-3-yl)-1-oxoisoindolin-5-yl)piperazin-1-yl)butoxy)phenyl)ethyl)-3-((4-methyl-5-(pyrimidin-4-yl)-4H-1,2,4-triazol-3-yl)methylamino)benzamide hydrochloride] | 87.7% | 89.2% | 82.8% | 10.3 nM |  |  |  |  | > 30 µM | < 0.000458 µM |  |  |  |
| Cc1ncsc1-c1ccc(CNC(=O)[C@@H]2C[C@@H](O)CN2C(=O)[C@@H](NC(=O)CCCCCOCCOCCOCCCCCCOc2cccc([C@@H](C)NC(=O)c3cccc(NCc4nnc(-c5ccncn5)n4C)c3)c2)C(C)(C)C)cc1 [Compound D79, (2S,4R)-1-((S)-2-(tert-butyl)-22-(3-((R)-1-(3-(((4-methyl-5-(pyrimidin-4-yl)-4H-1,2,4-triazol-3-yl)methyl)amino)benzamido)ethyl)phenoxy)-4-oxo-10,13,16-trioxa-3-azadocosan-1-oyl)-4-hydroxy-N-(4-(4-methylthiazol-5-yl)benzyl)pyrrolidine-2-carboxamide] |  |  |  |  | 52% | 54% | 8% | < 100 nM |  |  | > 10 µM | < 1 µM |  |
| Cc1ncsc1-c1ccc(CNC(=O)[C@@H]2C[C@@H](O)CN2C(=O)[C@@H](NC(=O)CCCCc2cn(CCCCCOc3cccc(CNC(=O)c4cccc(NCc5nnc(-c6ccncn6)n5C)c4)c3)nn2)C(C)(C)C)cc1 [Compound D80] |  |  |  |  | 6% | 0% | 23% | < 100 nM |  |  | > 10 µM | > 10 µM |  |
| Cc1ncsc1-c1ccc(CNC(=O)[C@@H]2C[C@@H](O)CN2C(=O)[C@@H](NC(=O)CCCCCOCCOCCOCCCCCCOc2cccc([C@H](C)NC(=O)c3cccc(NCc4nnc(-c5ccncn5)n4C)c3)c2)C(C)(C)C)cc1 [Compound D153] | 10% | 12% | 18% | 125 nM |  |  |  |  | 6.82 µM | 0.34 µM |  |  |  |
